Organism: Rattus norvegicus
Assay: DrugMatrix - Regimen: Daily Repeat
Assay type: toxicity, organism-based, Sprague-Dawley
Set-up: regimen Daily Repeat, gender Male, age 6-8 weeks
Conditions: in vivo, po, route oral GAVAGE, vehicle 100 % SALINE; for ABSOLUTE BASOPHIL / ABSOLUTE EOSINOPHIL / ABSOLUTE LYMPHOCYTE / ABSOLUTE MONOCYTE / ABSOLUTE SEGMENTED NEUTROPHIL / BASOPHIL / EOSINOPHIL / ERYTHROCYTE COUNT / HEMATOCRIT / HEMOGLOBIN / LEUKOCYTE COUNT / LYMPHOCYTE / MEAN CORPUSCULAR HEMOGLOBIN / MEAN CORPUSCULAR HEMOGLOBIN CONCENTRATION / MEAN CORPUSCULAR VOLUME / MONOCYTE / NEUTROPHIL / NUCLEATED RED BLOOD CELLS / PLATELET COUNT: tissue Blood; for ALANINE AMINOTRANSFERASE / ALBUMIN / ALKALINE PHOSPHATASE / ASPARTATE AMINOTRANSFERASE / BLOOD UREA NITROGEN / CARBON DIOXIDE / CHLORIDE / CHOLESTEROL / CREATINE PHOSPHOKINASE / CREATININE / GLUCOSE / LACTATE DEHYDROGENASE / LIPASE / PHOSPHORUS / POTASSIUM / SODIUM / TOTAL BILIRUBIN / TOTAL PROTEIN / URIC ACID: tissue Plasma
[1] = 0 mg/kg, 72 h, dose level Control, time 3 day
[2] = 0 mg/kg, 120 h, dose level Control, time 5 day
[3] = 46 mg/kg, 72 h, dose level Low, time 3 day

COc1ccc2cc(CC(=O)O)ccc2c1
ABSOLUTE BASOPHIL [1]: 0 CELLS/uL
ABSOLUTE EOSINOPHIL [1]: 26.83 CELLS/uL
ABSOLUTE LYMPHOCYTE [1]: 12748.5 CELLS/uL
ABSOLUTE MONOCYTE [1]: 140.5 CELLS/uL
ABSOLUTE SEGMENTED NEUTROPHIL [1]: 1067.5 CELLS/uL
BASOPHIL [1]: 0%
EOSINOPHIL [1]: 0.17%
ERYTHROCYTE COUNT [1]: 5.51 x10E6/uL
HEMATOCRIT [1]: 34.75%
HEMOGLOBIN [1]: 13.65 G/DL
LEUKOCYTE COUNT [1]: 13.98 x10E3/uL
LYMPHOCYTE [1]: 91.17%
MEAN CORPUSCULAR HEMOGLOBIN [1]: 24.8 pg
MEAN CORPUSCULAR HEMOGLOBIN CONCENTRATION [1]: 39.33 G/DL
MEAN CORPUSCULAR VOLUME [1]: 63.03 fL
MONOCYTE [1]: 1%
NEUTROPHIL [1]: 7.67%
NUCLEATED RED BLOOD CELLS [1]: 0 /100WBC
PLATELET COUNT [1]: 1278.17 x10E3/uL
ALANINE AMINOTRANSFERASE [1]: 52.17 u/L
ALBUMIN [1]: 4.07 G/DL
ALKALINE PHOSPHATASE [1]: 416.83 u/L
ASPARTATE AMINOTRANSFERASE [1]: 109.67 u/L
BLOOD UREA NITROGEN [1]: 16.83 mg/dL
CARBON DIOXIDE [1]: 28 mmol/L
CHLORIDE [1]: 100.83 MEQ/L
CHOLESTEROL [1]: 69 mg/dL
CREATINE PHOSPHOKINASE [1]: 1155.67 u/L
CREATININE [1]: 0.32 mg/dL
GLUCOSE [1]: 186.5 mg/dL
LACTATE DEHYDROGENASE [1]: 345.67 u/L
LIPASE [1]: 12.17 u/L
PHOSPHORUS [1]: 12.45 mg/dL
POTASSIUM [1]: 6.85 MEQ/L
SODIUM [1]: 141.4 MEQ/L
TOTAL BILIRUBIN [1]: 0.23 mg/dL
TOTAL PROTEIN [1]: 5.63 G/DL
URIC ACID [1]: 2.22 mg/dL
ABSOLUTE BASOPHIL [2]: 0 CELLS/uL
ABSOLUTE EOSINOPHIL [2]: 114.33 CELLS/uL
ABSOLUTE LYMPHOCYTE [2]: 11655.33 CELLS/uL
ABSOLUTE MONOCYTE [2]: 142 CELLS/uL
ABSOLUTE SEGMENTED NEUTROPHIL [2]: 1055 CELLS/uL
BASOPHIL [2]: 0%
EOSINOPHIL [2]: 0.83%
ERYTHROCYTE COUNT [2]: 5.68 x10E6/uL
HEMATOCRIT [2]: 35.92%
HEMOGLOBIN [2]: 14.13 G/DL
LEUKOCYTE COUNT [2]: 12.97 x10E3/uL
LYMPHOCYTE [2]: 90%
MEAN CORPUSCULAR HEMOGLOBIN [2]: 24.93 pg
MEAN CORPUSCULAR HEMOGLOBIN CONCENTRATION [2]: 39.37 G/DL
MEAN CORPUSCULAR VOLUME [2]: 63.33 fL
MONOCYTE [2]: 1.17%
NEUTROPHIL [2]: 8%
NUCLEATED RED BLOOD CELLS [2]: 0 /100WBC
PLATELET COUNT [2]: 1234 x10E3/uL
ALANINE AMINOTRANSFERASE [2]: 43.5 u/L
ALBUMIN [2]: 4.23 G/DL
ALKALINE PHOSPHATASE [2]: 331.5 u/L
ASPARTATE AMINOTRANSFERASE [2]: 80.83 u/L
BLOOD UREA NITROGEN [2]: 17.67 mg/dL
CARBON DIOXIDE [2]: 31.83 mmol/L
CHLORIDE [2]: 100.83 MEQ/L
CHOLESTEROL [2]: 69.5 mg/dL
CREATINE PHOSPHOKINASE [2]: 320 u/L
CREATININE [2]: 0.26 mg/dL
GLUCOSE [2]: 157.33 mg/dL
LACTATE DEHYDROGENASE [2]: 364.67 u/L
LIPASE [2]: 9.83 u/L
PHOSPHORUS [2]: 11.05 mg/dL
POTASSIUM [2]: 5.83 MEQ/L
SODIUM [2]: 141.07 MEQ/L
TOTAL BILIRUBIN [2]: 0.22 mg/dL
TOTAL PROTEIN [2]: 5.92 G/DL
URIC ACID [2]: 1.23 mg/dL
ABSOLUTE BASOPHIL [3]: 0 CELLS/uL
ABSOLUTE EOSINOPHIL [3]: 49.33 CELLS/uL
ABSOLUTE LYMPHOCYTE [3]: 12249.33 CELLS/uL
ABSOLUTE MONOCYTE [3]: 224.67 CELLS/uL
ABSOLUTE SEGMENTED NEUTROPHIL [3]: 1176.67 CELLS/uL
BASOPHIL [3]: 0%
EOSINOPHIL [3]: 0.33%
ERYTHROCYTE COUNT [3]: 5.54 x10E6/uL
HEMATOCRIT [3]: 33.9%
HEMOGLOBIN [3]: 13.13 G/DL
LEUKOCYTE COUNT [3]: 13.7 x10E3/uL
LYMPHOCYTE [3]: 89.67%
MEAN CORPUSCULAR HEMOGLOBIN [3]: 23.73 pg
MEAN CORPUSCULAR HEMOGLOBIN CONCENTRATION [3]: 38.77 G/DL
MEAN CORPUSCULAR VOLUME [3]: 61.23 fL
MONOCYTE [3]: 1.67%
NEUTROPHIL [3]: 8.33%
NUCLEATED RED BLOOD CELLS [3]: 0 /100WBC
PLATELET COUNT [3]: 1182.67 x10E3/uL
ALANINE AMINOTRANSFERASE [3]: 61.33 u/L
ALBUMIN [3]: 4.13 G/DL
ALKALINE PHOSPHATASE [3]: 328.67 u/L
ASPARTATE AMINOTRANSFERASE [3]: 85.67 u/L
BLOOD UREA NITROGEN [3]: 16 mg/dL
CARBON DIOXIDE [3]: 34 mmol/L
CHLORIDE [3]: 102.33 MEQ/L
CHOLESTEROL [3]: 75.67 mg/dL
CREATINE PHOSPHOKINASE [3]: 347.33 u/L
CREATININE [3]: 0.4 mg/dL
GLUCOSE [3]: 150.67 mg/dL
LACTATE DEHYDROGENASE [3]: 245.33 u/L
LIPASE [3]: 9 u/L
PHOSPHORUS [3]: 11.63 mg/dL
POTASSIUM [3]: 6.77 MEQ/L
SODIUM [3]: 143.43 MEQ/L
TOTAL BILIRUBIN [3]: 0.13 mg/dL
TOTAL PROTEIN [3]: 5.33 G/DL
URIC ACID [3]: 1.3 mg/dL
